Key:
D 407 cells = test: Cytotoxicity of amphiphile/DNA complexes, percentage of survived cells; type: cell-based, human; set-up: concentration or dose not given beside the values
plasmid DNA = test: DNA condensation/complexation, EtBr displacement assay; type: binding
How it was run: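 Plasmid DNA (0.6 μg/well) was mixed with 0.002% EtBr in 20 mM HEPES–150 mM NaCl pH 7.4, then cationic liposomes were added at various +/− charge ratios.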

[1] = tested on: D407 (human retinal pigment epithelial) cells; test: In vitro transfection of plasmid DNA, β-galactosidase activity per well; type: cell-based; settings: for transfection efficiency: D 407
carotid arteries = test: In vivo gene transfer to collared carotid arteries, X-gal staining; set-up: species or system New Zealand White rabbits; settings: rabbit carotid artery
Experimental: For in vivo studies derivative/plasmid DNA complexes were prepared by the above mentioned method. After gentle swirling the mixtures were allowed to stand in room temperatures for 30 min. prior to use. The complexes were made in phosphate buffer saline and those having +/−charge ratios of 2-8 were used.
Five New Zealand White male rabbits of 2.5-3.5 kg were used. Fentanyl-fluanisone (0,3 mL/kg, s.c., Janssen Pharmaceutica, Beerse, Belgium) and midazolam (1.5 mg/kg, i.m., Roche, Basel, Switzerland) were used for anesthesia. Carotid arteries were exposed using midline neck incision. Arteries were carefully separated from the surrounding tissue and 3 cm silastic collar (MediGene Oy, Kuopio, Finland) was positioned around the artery. Rabbits were re-anesthetized for gene transfer, which was performed 5 days after the installation of the collars. The collars were opened and filled with 600 μL of the gene transfer solution. Rabbits were sacrificed three days after the gene transfer and arteries were removed for histological analyses.
Collared arteries were divided into three equal parts: the proximal third was immersion-fixed in 4% paraformaldehyde/15% sucrose (pH 7.4) for 4 h, rinsed in 15% sucrose (pH 7.4) overnight and embedded in paraffin. The medial third was stored at −70° C. for later analyses. The distal third was immersion-fixed in 4% paraformaldehyde/phosphate buffered saline (pH 7.4) for 30 min, rinsed 24 h in phosphate buffer (pH 7.2) and embedded in OCT compound.
Ten randomly selected frozen sections (10 μm) from each rabbit were stained with X-gal for 18 h to identify β-galactosidase positive cells. Mayers Carmalum-stain was, used as counter stain.

CVI-P cells = test: Cytotoxicity of amphiphile/DNA complexes, percentage of survived cells
[2] = tested on: CV-1P (African monkey green kidney fibroblasts cells); test: In vitro transfection of plasmid DNA, β-galactosidase activity per well; type: cell-based; settings: for transfection efficiency: CVI-P
How it was run: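 CV-1P cells (20 000/well) given compound/DNA complexes at various charge ratios, prepared in 50 mM MES–50 mM HEPES–75 mM NaCl pH 7.2, 0.6 μg DNA/well, for 5 h at 37 °C, then 45 h in growth medium. Lysates assayed for β-galactosidase via oNPG hydrolysis at 405 nm against an E. coli enzyme standard; efficiency expressed as percent of Lipofectin.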

[3] = Preparation of liposomes (vesicle solution); type: physicochemical
Experimental: Cationic liposomes comprising derivatives I-XXI were prepared by dissolving the crystalline derivative in chloroform. The solvent was evaporated under a stream of nitrogen for 45 min in vacuum. The resulting thin films were resuspended in 4 ml deionized water, vortexed and sonicated in bath type sonicator 30′ until the solution became clear. (The final concentration of liposomes was 2.5 mM.) In order to prepare the liposomes of derivatives I-XXI (Table 2) high temperatures (40-65° C.) were used. Derivatives XXII-XXVII (Table 2) were dissolved in deionized water, vortexed and sonicated 5-7 min in a bath sonicator.

[4] = amphiphile/DNA +/− charge ratio 0.5
[5] = amphiphile/DNA +/− charge ratio 1
[6] = amphiphile/DNA +/− charge ratio 2
[7] = amphiphile/DNA +/− charge ratio 4
[8] = amphiphile/DNA +/− charge ratio 8

| Compound | cytotoxicity as a percentage of survived cells (D 407 cells; [4]) | cytotoxicity as a percentage of survived cells (D 407 cells; [5]) | cytotoxicity as a percentage of survived cells (D 407 cells; [6]) | cytotoxicity as a percentage of survived cells (D 407 cells; [7]) | cytotoxicity as a percentage of survived cells (D 407 cells; [8]) | complexation, percentage of the maximum fluorescence signal when EtBr bound to DNA in the absence of an amphiphile (plasmid DNA; [4]) | complexation, percentage of the maximum fluorescence signal when EtBr bound to DNA in the absence of an amphiphile (plasmid DNA; [5]) | complexation, percentage of the maximum fluorescence signal when EtBr bound to DNA in the absence of an amphiphile (plasmid DNA; [6]) | complexation, percentage of the maximum fluorescence signal when EtBr bound to DNA in the absence of an amphiphile (plasmid DNA; [7]) | complexation, percentage of the maximum fluorescence signal when EtBr bound to DNA in the absence of an amphiphile (plasmid DNA; [8]) | transfection efficiency [1, 5] | transfection efficiency [1, 6] | transfection efficiency [1, 7] | transfection efficiency [1, 8] | cytotoxicity as a percentage of survived cells (CVI-P cells; [4]) | cytotoxicity as a percentage of survived cells (CVI-P cells; [5]) | cytotoxicity as a percentage of survived cells (CVI-P cells; [6]) | cytotoxicity as a percentage of survived cells (CVI-P cells; [7]) | cytotoxicity as a percentage of survived cells (CVI-P cells; [8]) | transfection efficiency [2, 4] | also measured |
| --- | --- | --- | --- | --- | --- | --- | --- | --- | --- | --- | --- | --- | --- | --- | --- | --- | --- | --- | --- | --- | --- |
| CCCCCCCCCCCCOC(=O)C1=C(C[n+]2ccccc2)NC(C[n+]2ccccc2)=C(C(=O)OCCCCCCCCCCCC)C1c1ccccc1.[Br-].[Br-] [XXIII, 1,1′-{[3,5-Bis(dodecyloxycarbonyl)-1,4-dihydro-4-phenylpyridine-2,6-diyl]dimethylene}bispyridinium dibromide] | 93,67% | 87,69% | 79,68% | 70,23% | 11,98% | 78,22% | 59,03% | 48,3% | 44,14% | 42,48% | 0,27 β-galactosidase units per well | 0,6 β-galactosidase units per well | 35,82 β-galactosidase units per well | 4,43 β-galactosidase units per well | 99,71% | 94,54% | 93,48% | 89,35% | 42,72% | 0,44 β-galactosidase units per well | transfection efficiency [1, 4]: 0,27 β-galactosidase units per well; level of transfection compared with Lipofectin ([1]; D407 cells, FIG. 4): at least twenty times higher; β-galactosidase activity in arteries, result in words (carotid arteries; X-gal staining): detected at all study groups; gene transfer efficiency (carotid arteries; derivative/plasmid complexes at three charge ratios, three days after gene transfer): 0.05-1.5%; most effective charge ratio (carotid arteries; three charge ratios tested): +4; level of transfection compared with DOTAP ([2]; CV1-P cells, FIG. 4): ten times higher; level of transfection compared with Lipofectin ([2]; CV1-P cells, FIG. 4): at least twenty times higher; transfection efficiency [2, 5]: 0,42 β-galactosidase units per well; transfection efficiency [2, 6]: 65,5 β-galactosidase units per well; transfection efficiency [2, 7]: 122,8 β-galactosidase units per well; transfection efficiency [2, 8]: 22,33 β-galactosidase units per well; highest level of beta-galactosidase expression ([2]; confluent CV1-P cells, without serum, without DOPE): 208 mU |
| 3′,5′-Bis(cholesteryloxycarbonyl)-1′,4′-dihydro-1,2′,6′-trimethyl-3,4′-bipyridinium iodide [XII] | – | – | – | – | – | – | – | – | – | – | – | – | – | – | – | – | – | – | – | – | vesicle solution preparation, observation in words (phrases split over cells: 'Fast residue & crystalls'; 'No vesicle solution can be prepared') [3]: No |
| CCCCCCCCCCCCCCCCOC(=O)C1=C(C)NC(C)=C(C(=O)OCCCCCCCCCCCCCCCC)C1c1ccc[n+](C)c1.I.[I-] [VII, 3′,5′-Bis(hexadecyloxycarbonyl)-1′,4′-dihydro-1,2′,6′-trimethyl-3,4′-bipyridinium iodide] | 95,82% | 84,83% | 62,61% | 55,53% | 51,38% | 90,6% | 86,95% | 83,11% | 79,25% | 77,6% | 0,82 β-galactosidase units per well | 1,37 β-galactosidase units per well | 0,98 β-galactosidase units per well | 0,63 β-galactosidase units per well | 102,34% | 97,03% | 103,62% | 99,84% | 88,71% | 0,73 β-galactosidase units per well | melting point: 112 to 113 °C (dec.); transfection efficiency [2, 5]: 0,39 β-galactosidase units per well; transfection efficiency [2, 6]: 2,2 β-galactosidase units per well; transfection efficiency [2, 7]: 0,81 β-galactosidase units per well; transfection efficiency [2, 8]: 0,61 β-galactosidase units per well |
| CCCCCCCCCCCCCCCC(=O)OCCOC(=O)C1=C(C)NC(C)=C(C(=O)OCCOC(=O)CCCCCCCCCCCCCCC)C1c1ccc[n+](C)c1.I.[I-] [I, 1′,4′-Dihydro-1,2′,6′-trimethyl-3′,5′-bis[(2-palmitoyloxyethoxy)carbonyl]-3,4′-bipyridinium iodide] | 90,43% | 80,92% | 51,14% | 31,39% | 26,92% | 89,4% | 87,2% | 84,4% | 78,3% | 73,35% | 20,04 β-galactosidase units per well | 5,72 β-galactosidase units per well | 0,89 β-galactosidase units per well | 0,88 β-galactosidase units per well | 94,43% | 94,83% | 91,92% | 78,43% | 70,75% | 0,26 β-galactosidase units per well | melting point: 105 to 107 °C; transfection efficiency [1, 4]: 0,83 β-galactosidase units per well; transfection efficiency [2, 5]: 7,72 β-galactosidase units per well; transfection efficiency [2, 6]: 2,89 β-galactosidase units per well; transfection efficiency [2, 7]: 0,73 β-galactosidase units per well; transfection efficiency [2, 8]: 0,78 β-galactosidase units per well |
